Experimental data taken from ChEMBL document CHEMBL1201862, “PubChem BioAssay data set” (2004).
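Step 1: Grow cells in 96-well plates. Step 2: Expose to compound for 48 hours at 5 concentrations. Step 3: Interpolate endpoints linearly; if unreached, use highest concentration. GI50: concentration for 50% inhibition of growth.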 Active and inactive are the calls of the source. Cut-off read from the data, not from the text of the source: active = GI50 up to about 1.1 µM and inactive = higher.

Legend:
Assay in all cases: NCI anticancer screen, dose series, 48 h
[1] = system: DU-145
[2] = system: HCC 2998
[3] = system: HCT-116
[4] = system: Hs-578T
[5] = system: MDA-MB-231
[6] = system: MOLT-4
[7] = system: Malme-3M
[8] = system: NCI-H23
[9] = system: NCI-H460
[10] = system: NCI-H522
[11] = system: OVCAR-3
[12] = system: OVCAR-4
[13] = system: OVCAR-5
[14] = system: SF-268
[15] = system: SK-OV-3
[16] = system: SN12C
[17] = system: SW-620
[18] = system: U-251
[19] = system: M14
[20] = system: SNB-75

Measured: GI50

N#CSC#Cc1ccc(C#CSC#N)cc1
inactive: [1] 15.1 µM | [2] 17.6 µM | [3] 19 µM | [4] 15.7 µM | [5] 17.8 µM | [6] 36.2 µM | [7] 19.1 µM | [8] 18.7 µM | [9] 19.9 µM | [10] 11.1 µM | [11] 19.3 µM | [12] 8.81 µM | [13] 19.2 µM | [14] 21.5 µM | [15] 22.6 µM | [16] 18 µM | [17] 19.2 µM | [18] 21.5 µM

NC(Cc1cccc([N+](=O)[O-])c1)C(=O)O (centres undefined)
inactive: [1] > 100 µM | [2] > 100 µM | [3] > 100 µM | [4] > 100 µM | [19] > 100 µM | [5] > 100 µM | [6] > 100 µM | [7] > 100 µM | [8] > 100 µM | [9] > 100 µM | [10] > 100 µM | [11] > 100 µM | [12] > 100 µM | [13] > 100 µM | [14] > 100 µM | [15] > 100 µM | [16] > 100 µM | [17] > 100 µM | [18] > 100 µM

CC1(C)N=c2c(ncn2CCO)=C(C(N)=O)N1
inactive: [1] > 100 µM | [2] > 100 µM | [3] > 100 µM | [4] > 100 µM | [19] > 100 µM | [5] > 100 µM | [7] > 100 µM | [8] > 100 µM | [9] > 100 µM | [10] > 100 µM | [11] > 100 µM | [12] > 100 µM | [13] > 100 µM | [14] > 100 µM | [15] > 100 µM | [16] > 100 µM | [17] > 100 µM | [18] > 100 µM

Cc1ccc(C(=O)N(C(C)C)C(C)C)cc1/N=N/N(C)C
inactive: [1] > 100 µM | [2] > 100 µM | [3] > 75.9 µM | [4] 96.6 µM | [19] > 100 µM | [5] > 100 µM | [6] 45.3 µM | [7] 84.7 µM | [8] 41 µM | [9] > 100 µM | [10] 18.2 µM | [11] 31.3 µM | [12] > 100 µM | [13] > 100 µM | [14] > 51.6 µM | [15] > 100 µM | [16] > 100 µM | [17] > 92.3 µM | [18] > 80 µM

C/C=C(\C)C(=O)O[C@@H]1CC(C)(C)CC2C3=CCC4[C@]56CC[C@](O)(OC5)C(C)(C)C6CC[C@@]4(C)C3(C)CC[C@]21C(=O)O (some centres undefined)
inactive: [1] > 100 µM | [2] > 100 µM | [3] 79.6 µM | [4] > 100 µM | [19] > 100 µM | [5] > 100 µM | [6] > 100 µM | [7] > 100 µM | [8] > 100 µM | [9] 78.2 µM | [10] > 100 µM | [11] 81.7 µM | [12] > 100 µM | [13] > 100 µM | [14] > 100 µM | [15] > 100 µM | [16] > 100 µM | [17] > 100 µM | [18] 70.5 µM

O=C(CN(C(=O)OC12CC3CC(CC(C3)C1)C2)C(=O)OC12CC3CC(CC(C3)C1)C2)Oc1ccc([N+](=O)[O-])cc1
inactive: [2] > 100 µM | [3] > 100 µM | [4] > 100 µM | [19] > 100 µM | [5] 76.2 µM | [6] 4.2 µM | [7] 75 µM | [8] 93.8 µM | [9] > 100 µM | [10] 59 µM | [11] > 100 µM | [12] > 100 µM | [13] > 100 µM | [14] > 100 µM | [15] > 100 µM | [16] 86.3 µM | [20] > 100 µM | [17] 56.6 µM | [18] 69.3 µM

COC(=O)c1c(C)nc(C)c(NO)c1-c1ccccc1C(F)(F)F
inactive: [1] 32.8 µM | [2] > 100 µM | [3] 16.3 µM | [4] 62.4 µM | [19] 19 µM | [5] 13.8 µM | [6] 26.1 µM | [7] 16.9 µM | [8] 35.6 µM | [9] > 100 µM | [10] 17.2 µM | [11] 16.7 µM | [12] 20 µM | [13] 31.8 µM | [14] 41.4 µM | [15] > 100 µM | [16] 27 µM | [17] 16 µM | [18] > 100 µM

CC(=O)N1C=Cc2c(c(C)c3c([nH]c4ccccc43)c2C)C1
inactive: [1] 11.5 µM | [3] 1.53 µM | [4] 3.62 µM | [19] 7.28 µM | [5] 3.2 µM | [6] 13.1 µM | [7] 7.53 µM | [8] 5.92 µM | [9] 1.23 µM | [10] 10.4 µM | [11] 1.74 µM | [12] 2.13 µM | [13] 9.25 µM | [14] 7.4 µM | [15] 13.6 µM | [16] 3.8 µM | [17] 2.51 µM | [18] 4.89 µM

O=C1CSC(c2ccccc2O)N1c1ccc2c(c1)Oc1c(Cl)c3c(c(Cl)c1=N2)Oc1cc(N2C(=O)CSC2c2ccccc2O)ccc1N=3 (centres undefined)
inactive: [1] 42.4 µM | [2] 53.3 µM | [3] 30.6 µM | [4] 30.3 µM | [19] 48.6 µM | [5] 28.9 µM | [6] 2.55 µM | [8] 58.3 µM | [9] 43 µM | [10] 20.6 µM | [11] 33.3 µM | [12] 64.7 µM | [13] > 100 µM | [14] 32.7 µM | [15] 25.8 µM | [17] 27.4 µM | [18] 24.9 µM

CCOP(=O)(OCC)C1(O)CC(n2cc(C)c(=O)[nH]c2=O)OC1CO (centres undefined)
inactive: [1] > 100 µM | [2] > 100 µM | [3] > 100 µM | [4] > 100 µM | [19] > 100 µM | [7] > 100 µM | [8] > 100 µM | [9] > 100 µM | [10] > 100 µM | [11] > 100 µM | [12] > 100 µM | [13] > 100 µM | [14] > 100 µM | [15] > 100 µM | [16] > 100 µM | [20] > 100 µM | [17] > 100 µM | [18] > 100 µM
